Experimental data as given in patent US8865934B2 (priority 2010, dated 2014).
Values after ≈ are worked out from the molar mass of the structure shown.

What was measured:
[1] = DPPH free radical scavenging (antioxidant activity, electron donating ability); conditions: 0.1 mM DPPH in methanol, 30 minutes at room temperature in the absence of light, absorbance at 517 nm
Experimental: Butylated hydroxyl anisole (BHA) was used as a control.
The mixture was allowed to react at room temperature for 30 minutes in the absence of light, and then the absorbance at 517 nm was measured using an UV-visible spectrophotometer (SCINCO, Korea). As blank, a reaction product between 0.5 ml of 0.1 mM DPPH and 1.5 ml of methanol was used. Electron donating ability (DEA) was calculated using the following equation: Electron donating ability (DEA) %={1−(S/B)}×100 wherein S is the absorbance at 517 nm of the reaction product between DPPH and the sample, and B is the absorbance at 517 nm of the reaction product between DPPH and methanol.

[2] = Stability of ramalin in water by HPLC, alone or with vitamin C; assay type: physicochemical; conditions: for stability (preserved amount by HPLC area) over maintenance time: FIG. 5
Experimental: At varying points of time, 10 μl of a sample was analyzed by semi-preparative reverse phase HPLC using an Agilent Eclipse XDB-C18 column (4.6×150 mm). The solvent system used consisted of 0.1% formic acid-containing water (A line) and 0.1% formic acid-containing methanol (B line). The analysis was carried out for a total of 30 minutes under the following conditions: from 0% to 5% for 15 min, from 5% to 90% for 5 min, from 90% to 0% for 5 min, and finally, from 0% to 5 min. The flow rate was 0.7 ml/min.

SMILES | IC50 values [1] [µg/mL] | stability (preserved amount by HPLC area) over maintenance time ([2]; ramalin alone, stored in water at 25° C. and 38° C.) | stability (preserved amount by HPLC area) over maintenance time ([2]; ramalin mixed with vitamin C (L-ascorbic acid) 1:1 (each 1000 ppm), stored in water) | stability at 38° C. ([2]; ramalin stored alone in water) | stability at 38° C. ([2]; ramalin stored together with vitamin C (1:1, each 1000 ppm) in water) | time within which more than half of ramalin disappears ([2]; room temperature, ramalin alone) [days]
COc1ccc(O)c(C(C)(C)C)c1 [Butylated hydroxyl anisole (BHA), Butylated hydroxyl anisole] | 1.43 (≈ 7.93 µM) |  |  |  |  | 
NC(CCC(=O)NNc1ccccc1O)C(=O)O (stereo not drawn) [Synthesized ramalin, ramalin] |  | decomposed rapidly | stability of the ramalin was maintained | completely disappear | somewhat stable | ≤ 4
